Experimental data reported in ChEMBL document CHEMBL5523719, “Structure-activity relationship study of new carbazole sulfonamide derivatives as anticancer agents with dual-target mechanism” (Eur J Med Chem, 2024).
Activity calls are given as the source filed them. The rule behind the calls is not given here.

Experiments:
MDA-MB-231 = assay: Antiproliferation activity against human MDA-MB-231 cells measured after 72 hrs incubation by MTT assay; assay type: functional, cell-based; conditions: MDA-MB-231, 72 h
MIA PaCa-2 = assay: Antiproliferation activity against human MIA PaCa-2 cells measured after 72 hrs incubation by MTT assay; assay type: functional, cell-based; conditions: MIA PaCa-2, 72 h
NCI-H460 = assay: Antiproliferation activity against human NCI-H460 cells measured after 72 hrs incubation by MTT assay; assay type: functional, cell-based; conditions: NCI-H460, 72 h
KB = assay: Antiproliferation activity against human KB cells measured after 72 hrs incubation by MTT assay; assay type: functional, cell-based
L02 = assay: Antiproliferation activity against human L02 cells measured after 72 hrs incubation by MTT assay; assay type: functional, cell-based; conditions: L02, 72 h
MCF7 [1] = assay: Antiproliferation activity against human MCF7 cells measured after 72 hrs incubation by MTT assay; assay type: functional, cell-based; conditions: MCF7, 72 h
NCI/ADR-RES = assay: Antiproliferation activity against human MCF7/ADR cells measured after 72 hrs incubation by MTT assay; assay type: functional, cell-based
Tubulin (Homo sapiens) [2] = target: T1, Tubulin (Homo sapiens) (UniProt P68371+Q9H4B7+P0DPH7+P68366+Q13509+Q71U36+P04350+Q3ZCM7+P07437+P68363+Q9BQE3+Q6PEY2+Q13885+Q9BVA1+Q9BUF5); assay: In vitro inhibition of microtubule (unknown origin) assembly at 10 uM; assay type: protein-complex assay
Tubulin (Homo sapiens) [3] = target: T1, Tubulin (Homo sapiens); assay: Inhibition of microtubule assembly in human MCF7 cells assessed as disrupted microtubule network at 50 uM measured after 24 hrs incubation by anti-alpha-tubulin antibody (green) and Hoechst 33342 (blue) stained nuclei were obtained under microscopy; assay type: cell-based
Tubulin (Homo sapiens) [4] = target: T1, Tubulin (Homo sapiens); assay: Inhibition of microtubule assembly in human HepG2 cells assessed as disrupted microtubule network at 50 uM measured after 24 hrs incubation by anti-alpha-tubulin antibody (green) and Hoechst 33342 (blue) stained nuclei were obtained under microscopy; assay type: cell-based
[5] = target: Tubulin beta (Homo sapiens) (UniProt P68371+Q9H4B7+Q13509+P04350+Q3ZCM7+P07437+Q13885+Q9BVA1+Q9BUF5+A6NNZ2); assay: Binding affinity to beta-tubulin colchicine binding site in human MCF7 cells assessed as inhibition of EBI-beta-tubulin adduct band formation preincubated for 2 hrs followed by EBI addition measured after 2 hrs by EBI competition based Western blotting analysis; assay type: cell-based; conditions: dose 12.5-100 nM
MCF7 [6] = assay: Induction of cell cycle arrest in human MCF7 cells assessed as accumulation of cells at G2/M phase at 4 nM measured after 24 hrs by flow cytometry (reference value: 22.84%); assay type: functional
MCF7 [7] = assay: Induction of cell cycle arrest in human MCF7 cells assessed as accumulation of cells at G2/M phase at 25 nM measured after 24 hrs by flow cytometry (reference value: 22.84%); assay type: functional
MCF7 [8] = assay: Induction of cell cycle arrest in human MCF7 cells assessed as accumulation of cells at G2/M phase at 100 nM measured after 24 hrs by flow cytometry (reference value: 22.84%); assay type: functional
MCF7 [9] = assay: Induction of cell cycle arrest in human MCF7 cells assessed as accumulation of cells at G2/M phase at 500 nM measured after 24 hrs by flow cytometry (reference value: 22.84%); assay type: functional
MCF7 [10] = assay: Induction of cell cycle arrest in human MCF7 cells assessed as accumulation of cells at G0/G1 phase at 4 nM measured after 24 hrs by flow cytometry (reference value: 61.73%); assay type: functional
MCF7 [11] = assay: Induction of cell cycle arrest in human MCF7 cells assessed as accumulation of cells at G0/G1 phase at 25 nM measured after 24 hrs by flow cytometry (reference value: 61.73%); assay type: functional
MCF7 [12] = assay: Induction of cell cycle arrest in human MCF7 cells assessed as accumulation of cells at G0/G1 phase at 100 nM measured after 24 hrs by flow cytometry (reference value: 61.73%); assay type: functional
MCF7 [13] = assay: Induction of cell cycle arrest in human MCF7 cells assessed as accumulation of cells at G0/G1 phase at 500 nM measured after 24 hrs by flow cytometry (reference value: 61.73%); assay type: functional
MCF7 [14] = assay: Induction of cell cycle arrest in human MCF7 cells assessed as increase in cyclin B1 protein expression at […] by Western blot analysis; assay type: functional, cell-based; conditions: dose lower 6.25 µM
MCF7 [15] = assay: Induction of cell cycle arrest in human MCF7 cells assessed as increase in phosphorylation of histone H3 at […] by Western blot analysis; assay type: functional, cell-based; conditions: dose lower 6.25 µM
MCF7 [16] = assay: Induction of apoptosis in human MCF7 cells assessed as early apoptotic cells at 6.25 nM measured after 48 hrs by AnnexinV/PI double staining assays (reference value: 5.32%); assay type: functional
MCF7 [17] = assay: Induction of apoptosis in human MCF7 cells assessed as viable cells at 6.25 nM measured after 48 hrs by AnnexinV/PI double staining assays (reference value: 91.20%); assay type: functional; conditions: read-out: Activity
MCF7 [18] = assay: Induction of apoptosis in human MCF7 cells assessed as late apoptotic cells at 6.25 nM measured after 48 hrs by AnnexinV/PI double staining assays (reference value: 2.60%); assay type: functional
MCF7 [19] = assay: Induction of apoptosis in human MCF7 cells assessed as necrotic cells at 6.25 nM measured after 48 hrs by AnnexinV/PI double staining assays (reference value: 0.89%); assay type: functional
MCF7 [20] = assay: Induction of apoptosis in human MCF7 cells assessed as viable cells at 12.5 nM measured after 48 hrs by AnnexinV/PI double staining assays (reference value: 91.20%); assay type: functional; conditions: read-out: Activity
MCF7 [21] = assay: Induction of apoptosis in human MCF7 cells assessed as early apoptotic cells at 12.5 nM measured after 48 hrs by AnnexinV/PI double staining assays (reference value: 5.32%); assay type: functional
MCF7 [22] = assay: Induction of apoptosis in human MCF7 cells assessed as late apoptotic cells at 12.5 nM measured after 48 hrs by AnnexinV/PI double staining assays (reference value: 2.60%); assay type: functional
MCF7 [23] = assay: Induction of apoptosis in human MCF7 cells assessed as necrotic cells at 12.5 nM measured after 48 hrs by AnnexinV/PI double staining assays (reference value: 0.89%); assay type: functional
MCF7 [24] = assay: Induction of apoptosis in human MCF7 cells assessed as viable cells at 25 nM measured after 48 hrs by AnnexinV/PI double staining assays (reference value: 91.20%); assay type: functional; conditions: read-out: Activity
MCF7 [25] = assay: Induction of apoptosis in human MCF7 cells assessed as early apoptotic cells at 25 nM measured after 48 hrs by AnnexinV/PI double staining assays (reference value: 5.32%); assay type: functional
MCF7 [26] = assay: Induction of apoptosis in human MCF7 cells assessed as late apoptotic cells at 25 nM measured after 48 hrs by AnnexinV/PI double staining assays (reference value: 2.60%); assay type: functional
MCF7 [27] = assay: Induction of apoptosis in human MCF7 cells assessed as necrotic cells at 25 nM measured after 48 hrs by AnnexinV/PI double staining assays (reference value: 0.89%); assay type: functional
MCF7 [28] = assay: Induction of apoptosis in human MCF7 cells assessed as viable cells at 50 nM measured after 48 hrs by AnnexinV/PI double staining assays (reference value: 91.20%); assay type: functional; conditions: read-out: Activity
MCF7 [29] = assay: Induction of apoptosis in human MCF7 cells assessed as early apoptotic cells at 50 nM measured after 48 hrs by AnnexinV/PI double staining assays (reference value: 5.32%); assay type: functional
MCF7 [30] = assay: Induction of apoptosis in human MCF7 cells assessed as late apoptotic cells at 50 nM measured after 48 hrs by AnnexinV/PI double staining assays (reference value: 2.60%); assay type: functional
MCF7 [31] = assay: Induction of apoptosis in human MCF7 cells assessed as necrotic cells at 50 nM measured after 48 hrs by AnnexinV/PI double staining assays (reference value: 0.89%); assay type: functional
MCF7 [32] = assay: Induction of apoptosis in human MCF7 cells assessed as multinuclear cells at 5 nM measured after 24 hrs by fluorescent microscopy; assay type: functional
MCF7 [33] = assay: Induction of apoptosis in human MCF7 cells assessed as karyorrhexis at 5 nM measured after 24 hrs by fluorescent microscopy; assay type: functional
HMEC-1 [34] = assay: Anti-proliferative activity against human HMEC-1 cells measured after 48 hrs; assay type: functional, cell-based; conditions: HMEC-1, 48 h
HMEC-1 [35] = assay: Anti-migration activity in human HMEC-1 cells assessed as inhibition of cell migration at 5 nM measured after 48 hrs by Scratching assay; assay type: functional, cell-based
HMEC-1 [36] = assay: Angiogenic activity against human HMEC-1 cells assessed as decrease in vascular area measured after 48 hrs by Endothelial tube formation assay; assay type: functional, cell-based; conditions: dose 1-100 nM

IC50 (MDA-MB-231): 5.19 nM
IC50 (MIA PaCa-2): 0.81 nM
IC50 (NCI-H460): 12.4 nM
IC50 (KB): 9.37 nM
IC50 (MCF7 [1]): 24.3 nM
inhibition (Tubulin (Homo sapiens) [2]): Active
inhibition (Tubulin (Homo sapiens) [3]): Active
inhibition (Tubulin (Homo sapiens) [4]): Active
Activity [5]: Active
Structure (SMILES): COc1cc(NS(=O)(=O)c2ccc3c(c2)c2ccc(O)cc2n3C)c(OC)cc1Cl
IC50 (L02): 53.7 nM
IC50 (NCI/ADR-RES): 7.56 nM
Activity (MCF7 [6]): 17.8%
Activity (MCF7 [7]): 17.8%
Activity (MCF7 [8]): 17.8%
Activity (MCF7 [9]): 50.6%
Activity (MCF7 [10]): 37.05%
Activity (MCF7 [11]): 6.65%
Activity (MCF7 [12]): 3.93%
Activity (MCF7 [13]): 3.82%
Activity (MCF7 [14]): Dose-Dependent Effect
Activity (MCF7 [15]): Dose-Dependent Effect
Activity (MCF7 [16]): 34.89%
viability at 0.00625 µM (MCF7 [17]): 56.2%
Activity (MCF7 [18]): 8.89%
Activity (MCF7 [19]): 0.05%
viability at 0.0125 µM (MCF7 [20]): 49.2%
Activity (MCF7 [21]): 43.24%
Activity (MCF7 [22]): 7.54%
Activity (MCF7 [23]): 0.06%
viability at 0.025 µM (MCF7 [24]): 36.8%
Activity (MCF7 [25]): 49.44%
Activity (MCF7 [26]): 13.75%
Activity (MCF7 [27]): 0.06%
viability at 0.05 µM (MCF7 [28]): 46.3%
Activity (MCF7 [29]): 42.87%
Activity (MCF7 [30]): 10.8%
Activity (MCF7 [31]): 0.07%
Activity (MCF7 [32]): 46.27%
Activity (MCF7 [33]): 42.87%
IC50 (HMEC-1 [34]): 6.42 nM
inhibition (HMEC-1 [35]): Active
Activity (HMEC-1 [36]): Dose-Dependent Effect
